Results from patent publication US20220233556A1, “COMPOSITIONS AND METHODS FOR TREATING OPHTHALMIC CONDITIONS” (Medicon Pharmaceuticals, Inc., priority 2017, published 2022).
Read-outs that look alike come from different tables or passages of the source.

Experiments:
[1] = Biodistribution of PS in human cadaveric eyes (ex vivo), PS HP-β-CD solution; format: in vitro ADME; conditions: human eye ex vivo
Procedure: Human cadaveric eyes were obtained through the Lions Eye Bank for Long Island, Valley Stream, N.Y. They were preserved on ice and used within 2 h from removal from the donors.
In another similar study, the anterior surface of the human eye was brought into direct contact with a PS HP-β-CD solution (PS concentration at 0.5%, 2.0% and 3.3%) and incubated for 10 min at 37° C. The eye was then rinsed with 10% dimethylsulfoxide (DMSO) to remove residual PS from the surface of the eye and incubated in PBS for 60 min. […] At the specified times, ocular tissues were dissected and PS levels determined by HPLC.

[2] = Rabbit ocular PK study of PS emulsion (2% PS); format: in vivo, New Zealand rabbits; conditions: 2% PS emulsion
Procedure: A formulation includes 2% PS; 5% Propylene glycol, 10% Mineral oil, 4% Tween 60, 4% Tween 80, 10% (2-hydroxypropyl)-β-cyclodextrin (HP-β-CD). Preparation method (2 mL scale): Oil phase: weight PS into glass vial, add propylene glycol, stir at 50° C. to obtain a clear solution. Then add mineral oil, stir to obtain a clear solution. Water phase: Dissolve HP-β-CD, […] and Tween 80 into water. Add water phase into oil phase, probe-sonicate for 5 sec, 8 times, with 5 sec intervals. Resultant emulsion is filtrated through 0.22 μm filter.
Rabbit ocular pharmacokinetic (PK) study: PS was administered to New Zealand rabbits topically to the eye; as three 25 μL eye drops, 5 min apart. Rabbits were euthanized at eight specified time points between 0.25 to 16 h, ocular tissues were dissected and PS was extracted with acetonitrile and its tissue levels as well as those of its metabolites were determined by HPLC as described (Xie G. et al., Br J Pharmacol 165:2′52-2166; 2012).

[3] = Ocular PK study of PS nanoparticles (mPEG-PLA), topical eye drops; format: in vivo, New Zealand white rabbits; design: AUC(0-t) / AUC0-16h, cornea / AUC0-16h, conjunctiva: concentration or dose not given beside the values; conditions: for AUC(0-t) / Cmax: New Zealand white, rabbit, topical or ocular
Procedure: Composition: ˜3.0-3.5% PS, 96.5˜97% methoxy poly(ethylene glycol)-poly(lactide) (mPEG-PLA).
Preparation Method: Oil phase: 150 mg of PS and 1 g of PEG-PLA (Akina, Inc) were dissolved in 20 mL dichloromethane (DCM). Water phase: 365 mg of sodium cholate were dissolved in 60 ml of purified water. 5 mL of the oil phase was gently added into 15 mL of the water phase in a 50 mL Eppendorf conical tube. To create an emulsion, we used robe sonication for 2 min at 75% output (Branson 150, Fisher Scientific™, USA); the watt output was 12-13. The emulsion was transferred into a 100 mL beaker and stirred overnight at 600 rpm in a chemical hood until the DCM was fully evaporated. This was followed by centrifugation at 14,000 rpm for 1 h (Dupont, RC-5C). Then, the supernatant was transferred to another tube into which 3 mL of PBS were added to resuspend the nanoparticles. The nanoparticle solution was centrifuged for 6-7 seconds to remove aggregates. This supernatant was the final preparation.
Ocular PK study: PS formulated in nanoparticles as above was administered topically as eye drops to New Zealand white rabbits. The biodistribution of PS in ocular tissues at the indicated time points post administration was determined by HPLC.

[4] = PS biodistribution after topical alternative sodium alginate-based in-situ gel; format: in vivo, New Zealand white rabbits; conditions: New Zealand white, rabbit, 3 % PS in formulation
Procedure: Composition: 3% PS, 1.5% sodium alginate, 15% Tween 80, 10% (2-hydroxypropyl)-β-cyclodextrin, 10% polyethylene glycol 400 (PEG400), 5% polyoxyl stearate.
Preparation Method: A sodium alginate solution was prepared by adding an appropriate amount of sodium alginate to deionized water and heating the mixture to 90° C. with fast stirring (500 rpm). Once sodium alginate was completely dissolved, the solution was filtered through a 0.22 μm filter. Then, PS and additional excipients were added to achieve the above concentrations and stirred at 50° C. at 500 rpm until complete dissolution.
Results: PS in this formulation was administered topically to the eyes of New Zealand white rabbits and its biodistribution was determined as above.

[5] = PS levels in ocular tissues (HPLC) after topical 3.5% PS Vitamin E TPGS solution; format: in vivo, New Zealand white rabbits; conditions: New Zealand white, rabbit, 3.5 % PS solution (eye drops)
Procedure: Composition: 3.5% PS; 16% Vitamin E TPGS (d-α-tocopheryl polyethylene glycol 1000 succinate); 3.18% mannitol; 1.2% boric acid; 0.005% polyquaternium-1 (Polyquad). Alternatively, vitamin E TPGS may be replaced by other solubilizing agents. Polyquad is added as a preservative.
Preparation Method: Polyquad and Vitamin E TPGS were dissolved in purified water followed by addition of PS and stirring at 70° C. for 30 min. Then the solution was centrifuged to remove non-dissolved drug particles and the supernatant was collected, to which mannitol and boric acid were added. The final volume was adjusted with purified water after adjusting the pH to 6.7±0.2 with NaOH.
Results: The above PS formulation was administered topically as eye drops to the eyes of New Zealand white rabbits. The levels of PS in ocular tissues 1 h and 3 h later were determined by HPLC.

[6] = three 25 μL eye drops, PS and its metabolites
[7] = aqueous humor, read-out: PS in Aqueous humor
[8] = conjunctiva, read-out: PS in Conjunctiva
[9] = choroid, read-out: PS in Choroid

For `CCOP(=O)(OCC)OCCCCOC(=O)CC1=C(C)/C(=C/c2ccc([S+](C)[O-])cc2)c2ccc(F)cc21` (stereo not drawn) [PS, phosphosulindac], the “PS in Aqueous” value ([1]; 0.5% PS HP-β-CD solution) was 2.4 µM, the “PS in Lens” value ([1]; 0.5% PS HP-β-CD solution) was 0.6 µM and the “PS in Retina” value ([1]; 0.5% PS HP-β-CD solution) was 2.9 µM. The “PS in Vitreous” value ([1]; 0.5% PS HP-β-CD solution) was 0.3 µM, the “PS in Lens” value ([1]; 2.0% PS HP-β-CD solution) was 1.4 µM and the “PS in Lens” value ([1]; 3.3% PS HP-β-CD solution) was 1.9 µM. For the same compound, the “PS in Vitreous” value ([1]; 3.3% PS HP-β-CD solution) was 4.3 µM, the “PS in the retina” value ([2]; eye drops) was “no PS was detected” and the “Cmax, aqueous humor” value [2, 6] was 0.9 μm. The “Cmax, conjunctiva” value [2, 6] was 33.6 μm, the “Cmax, cornea” value [2, 6] was 85.4 μm and the AUC(0-t) ([2]; New Zealand, rabbit, iris and ciliary body, topical or ocular, eye drops, read-out: AUC0-16 h in the iris and ciliary body) was < 4 µM·h. The AUC(0-t) ([3]; aqueous humor, read-out: AUC0-16 h, Aqueous humor) was 3.4 µM·h, the Cmax ([3]; aqueous humor, read-out: Cmax, Aqueous humor) was 2600 nM and the AUC(0-t) ([3]; ciliary body, read-out: AUC0-16 h, Ciliary body) was 3.6 µM·h. It also gave a Cmax ([3]; ciliary body, read-out: Cmax, Ciliary body) of 2600 nM, an AUC(0-t) ([3]; conjunctiva, read-out: AUC0-16 h, Conjunctiva) of 61.7 µM·h and a Cmax ([3]; conjunctiva, read-out: Cmax, Conjunctiva) of 26700 nM. The AUC(0-t) ([3]; cornea, read-out: AUC0-16 h, Cornea) was 156 µM·h, the Cmax ([3]; cornea, read-out: Cmax, Cornea) was 101000 nM and the AUC(0-t) ([3]; iris, read-out: AUC0-16 h, Iris) was 13.6 µM·h. It also gave a Cmax ([3]; iris, read-out: Cmax, Iris) of 5200 nM, an AUC(0-t) ([3]; sclera, read-out: AUC0-16 h, Sclera) of 3.3 µM·h and a Cmax ([3]; sclera, read-out: Cmax, Sclera) of 2100 nM. The Cmax, conjunctiva ([3]; PS and its metabolites) was 26700 nM, the “Cmax, cornea” value ([3]; PS and its metabolites) was 101.3 μm and the concentration at 1 h [4, 7] was 400 nM. For the same compound, the concentration at 1 h [4, 8] was 4900 nM, the concentration at 3 h [4, 8] was 2100 nM and the concentration at 5 h [4, 8] was 2300 nM. It also gave a concentration at 8 h ([4]; conjunctiva, 8 h) of 1300 nM, a concentration at 1 h ([4]; cornea, read-out: PS in Cornea) of 17800 nM and a concentration at 3 h ([4]; cornea, read-out: PS in Cornea) of 5000 nM. It also gave a concentration at 5 h ([4]; cornea, read-out: PS in Cornea) of 1000 nM, a concentration at 1 h [5, 7] of 2300 nM and a concentration at 3 h [5, 7] of 100 nM. For the same compound, the concentration at 1 h [5, 9] was 3200 nM, the concentration at 3 h [5, 9] was 200 nM and the concentration at 1 h [5, 8] was 9300 nM. The concentration at 3 h [5, 8] was 500 nM, the concentration at 1 h ([5]; cornea, read-out: PS in Cornea) was 6900 nM and the concentration at 3 h ([5]; cornea, read-out: PS in Cornea) was 800 nM. It also gave a concentration at 3 h ([5]; iris, read-out: PS in Iris) of 900 nM, a concentration at 3 h ([5]; lacrimal gland, read-out: PS in Lacrimal gland) of 500 nM and a concentration at 1 h ([5]; lens, read-out: PS in Lens) of 1800 nM. It also gave a concentration at 3 h ([5]; lens, read-out: PS in Lens) of 100 nM, a concentration at 1 h ([5]; retina, read-out: PS in Retina) of 2700 nM and a concentration at 3 h ([5]; retina, read-out: PS in Retina) of 200 nM. It also gave a concentration at 1 h ([5]; sclera, read-out: PS in Sclera) of 2300 nM, a concentration at 3 h ([5]; sclera, read-out: PS in Sclera) of 200 nM and a concentration at 1 h ([5]; vitreous body, read-out: PS in Vitreous body) of 3600 nM.
